Assay results taken from article PMC4207660, “Identification and Characterization of Hundreds of Potent and Selective Inhibitors of Trypanosoma brucei Growth from a Kinase-Targeted Library Screening Campaign” (PLoS Neglected Tropical Diseases, 2014).

How the values were obtained:
[1] = target: T1, JAK3 (Homo sapiens, UniProt P52333); assay: Human kinase selectivity screening: JAK3; format: biochemical; conditions: read-out: JAK3 pIC50 values (converted)
T1 sequence (P52333 1-1124): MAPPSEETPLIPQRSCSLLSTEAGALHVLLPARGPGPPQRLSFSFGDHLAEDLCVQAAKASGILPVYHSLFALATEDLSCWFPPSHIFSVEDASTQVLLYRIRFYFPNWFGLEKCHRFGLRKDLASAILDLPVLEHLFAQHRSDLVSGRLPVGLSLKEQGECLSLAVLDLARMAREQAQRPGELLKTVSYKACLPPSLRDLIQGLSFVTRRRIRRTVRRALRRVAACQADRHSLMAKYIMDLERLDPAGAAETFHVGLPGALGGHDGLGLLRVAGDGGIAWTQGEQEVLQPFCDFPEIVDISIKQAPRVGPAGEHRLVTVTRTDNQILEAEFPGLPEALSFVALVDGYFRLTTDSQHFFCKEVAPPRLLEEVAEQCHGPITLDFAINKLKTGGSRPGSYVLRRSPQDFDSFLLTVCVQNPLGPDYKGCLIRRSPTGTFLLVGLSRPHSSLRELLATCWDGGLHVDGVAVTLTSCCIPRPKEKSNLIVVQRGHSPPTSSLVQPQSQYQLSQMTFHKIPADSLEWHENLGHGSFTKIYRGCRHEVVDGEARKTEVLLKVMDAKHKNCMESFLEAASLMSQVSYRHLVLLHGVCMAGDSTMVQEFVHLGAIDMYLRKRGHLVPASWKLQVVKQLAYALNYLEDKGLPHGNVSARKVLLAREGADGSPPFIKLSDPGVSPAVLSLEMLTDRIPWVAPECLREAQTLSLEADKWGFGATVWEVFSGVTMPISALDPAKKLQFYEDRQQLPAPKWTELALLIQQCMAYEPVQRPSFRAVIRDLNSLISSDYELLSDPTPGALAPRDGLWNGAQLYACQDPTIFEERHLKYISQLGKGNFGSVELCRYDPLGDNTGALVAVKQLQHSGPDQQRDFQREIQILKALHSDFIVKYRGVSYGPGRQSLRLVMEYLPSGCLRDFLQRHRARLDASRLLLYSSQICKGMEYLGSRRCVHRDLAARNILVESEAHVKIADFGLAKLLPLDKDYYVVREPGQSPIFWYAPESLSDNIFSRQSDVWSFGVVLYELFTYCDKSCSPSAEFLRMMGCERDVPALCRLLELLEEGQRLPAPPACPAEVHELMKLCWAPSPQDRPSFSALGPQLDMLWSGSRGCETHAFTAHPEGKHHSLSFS
Description: (§1) These kinases were chosen for general selectivity screening owing to their broad representation of the human kinome.

[2] = target: LCK (Homo sapiens, UniProt P06239); assay: Human kinase selectivity screening: LCK; format: biochemical; conditions: read-out: LCK pIC50 values (converted)
Chain of LCK (P06239 whole entry): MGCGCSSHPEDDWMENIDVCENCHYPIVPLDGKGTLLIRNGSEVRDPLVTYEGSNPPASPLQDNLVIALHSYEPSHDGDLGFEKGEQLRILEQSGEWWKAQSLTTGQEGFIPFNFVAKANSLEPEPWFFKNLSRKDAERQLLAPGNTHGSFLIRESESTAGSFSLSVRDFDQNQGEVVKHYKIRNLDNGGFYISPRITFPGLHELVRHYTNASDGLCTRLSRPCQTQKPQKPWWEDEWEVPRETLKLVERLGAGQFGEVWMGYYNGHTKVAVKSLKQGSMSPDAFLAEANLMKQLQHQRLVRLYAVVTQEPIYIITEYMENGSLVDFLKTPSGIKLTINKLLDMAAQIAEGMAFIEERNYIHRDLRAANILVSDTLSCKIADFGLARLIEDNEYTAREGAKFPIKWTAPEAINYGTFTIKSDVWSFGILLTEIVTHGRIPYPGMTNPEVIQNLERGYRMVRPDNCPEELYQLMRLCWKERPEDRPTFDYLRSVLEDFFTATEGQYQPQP
Description: as §1

Question: Which results are given for `CCCCc1nc(Nc2cccc(C)c2)c2c(=O)[nH]ccc2n1` [NEU-0001191]?
Answer: IC50 [1]: 200 nM; IC50 [2]: > 25100 nM

Question: For `Cn1cc(-c2cnc3[nH]cc(-c4cccc(C#N)c4)c3c2)cn1` [NEU-0001207], which IC50 [1] is on record?
Answer: The IC50 was 631 nM.

Question: And the IC50 [2]?
Answer: Its IC50 is 2510 nM.

Question: With `Cc1cc(Nc2cc(C3CC3)[nH]n2)nc(N2CCCCC2)n1` [NEU-0001127] as the compound, how does the IC50 [1] read?
Answer: The IC50 was 631 nM.

Question: What about the IC50 [2] of the same compound?
Answer: The IC50 was 1000 nM.

Question: How did the IC50 [1] turn out when `CN(C)Cc1ccc(-c2[nH]c3ncc(C#N)cc3c2-c2ccccc2)cc1` [NEU-0001206] was run?
Answer: Its IC50 is 501 nM.

Question: What about the IC50 [2] of the same compound?
Answer: The IC50 was 50.1 nM.

Question: With `O=S1(=O)Cc2ccc(Nc3nccc(-c4ccc(F)cc4)n3)cc2C1` [NEU-0001142] as the compound, how does the IC50 [1] read?
Answer: The IC50 was 631 nM.

Question: And the IC50 [2]?
Answer: The IC50 was 2510 nM.

Question: `O=C(Nc1ccc(-c2ccnc3[nH]ccc23)s1)C1(Cc2ccccc2)CCCNC1` (centres unmarked) [NEU-0001240] was tested. Which IC50 [1] did it give?
Answer: Its IC50 is 501 nM.

Question: And the IC50 [2]?
Answer: Its IC50 is 1580 nM.

Question: Which results are given for `CCCNc1nc(Nc2cnn(C)c2)c2c(=O)[nH]ccc2n1` [NEU-0001187]?
Answer: IC50 [1]: 2.51 nM; IC50 [2]: 200 nM
